Consider 18 compounds from ChEMBL document CHEMBL2021774, “Rapid development of piperidine carboxamides as potent and selective anaplastic lymphoma kinase inhibitors” (J Med Chem, 2012).

For experiment [1], the target named is T1, ALK tyrosine kinase receptor (Homo sapiens, UniProt Q9UM73).
The target of experiment [2] is Insulin-like growth factor 1 receptor (Homo sapiens, UniProt P08069).
Experiment [3] has as its target T1, ALK tyrosine kinase receptor. This is another data set of the same source.
Description: Inhibition of ALK phosphorylation in human Karpas-299 cells after 1 hr

The structures appear in SMILES notation. pIC50: −log10 of the molar value.

T1 sequence (Q9UM73 whole entry): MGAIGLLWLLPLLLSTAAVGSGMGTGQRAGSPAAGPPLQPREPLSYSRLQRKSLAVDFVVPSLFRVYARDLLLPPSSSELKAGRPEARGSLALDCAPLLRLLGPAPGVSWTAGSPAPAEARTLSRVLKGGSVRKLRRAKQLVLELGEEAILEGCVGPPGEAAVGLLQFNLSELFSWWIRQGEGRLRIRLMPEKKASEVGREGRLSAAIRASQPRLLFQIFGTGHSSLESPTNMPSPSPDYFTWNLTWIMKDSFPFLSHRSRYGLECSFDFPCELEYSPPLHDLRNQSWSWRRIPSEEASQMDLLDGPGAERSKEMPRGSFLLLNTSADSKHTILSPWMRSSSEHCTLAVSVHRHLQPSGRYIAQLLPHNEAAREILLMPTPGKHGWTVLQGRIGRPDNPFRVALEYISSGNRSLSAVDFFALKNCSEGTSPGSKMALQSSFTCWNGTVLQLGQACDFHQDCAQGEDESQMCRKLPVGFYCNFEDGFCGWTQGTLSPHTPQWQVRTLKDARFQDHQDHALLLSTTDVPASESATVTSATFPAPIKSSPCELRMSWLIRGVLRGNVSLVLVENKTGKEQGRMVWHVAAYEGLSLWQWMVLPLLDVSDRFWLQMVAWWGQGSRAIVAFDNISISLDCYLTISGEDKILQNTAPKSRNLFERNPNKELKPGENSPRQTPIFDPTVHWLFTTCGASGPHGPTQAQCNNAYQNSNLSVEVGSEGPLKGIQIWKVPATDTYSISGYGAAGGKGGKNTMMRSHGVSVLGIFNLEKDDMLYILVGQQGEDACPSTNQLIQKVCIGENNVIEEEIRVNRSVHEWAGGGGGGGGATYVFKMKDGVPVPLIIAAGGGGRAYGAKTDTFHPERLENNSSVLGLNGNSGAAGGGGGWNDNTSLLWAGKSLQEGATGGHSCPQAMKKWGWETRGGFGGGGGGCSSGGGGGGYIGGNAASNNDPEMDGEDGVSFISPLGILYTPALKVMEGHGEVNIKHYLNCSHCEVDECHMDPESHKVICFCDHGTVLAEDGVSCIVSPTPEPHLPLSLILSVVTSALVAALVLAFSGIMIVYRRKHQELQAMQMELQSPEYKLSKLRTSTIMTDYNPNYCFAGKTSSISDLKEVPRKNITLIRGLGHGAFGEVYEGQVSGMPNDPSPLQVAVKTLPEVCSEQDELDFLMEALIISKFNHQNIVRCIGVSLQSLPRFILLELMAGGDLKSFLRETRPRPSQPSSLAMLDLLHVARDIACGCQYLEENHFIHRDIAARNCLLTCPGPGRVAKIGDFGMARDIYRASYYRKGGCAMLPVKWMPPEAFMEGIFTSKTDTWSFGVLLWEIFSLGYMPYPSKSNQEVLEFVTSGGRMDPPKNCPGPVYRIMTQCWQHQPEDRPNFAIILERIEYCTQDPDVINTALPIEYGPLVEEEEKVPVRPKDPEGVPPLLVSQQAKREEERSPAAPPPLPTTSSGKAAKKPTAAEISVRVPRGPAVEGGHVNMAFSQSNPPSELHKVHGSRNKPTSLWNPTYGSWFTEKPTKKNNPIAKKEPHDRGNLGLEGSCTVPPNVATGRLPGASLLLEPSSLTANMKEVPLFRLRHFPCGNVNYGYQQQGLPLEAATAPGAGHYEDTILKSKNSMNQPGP
Insulin-like growth factor 1 receptor, sequence (P08069 31-736 limits assumed): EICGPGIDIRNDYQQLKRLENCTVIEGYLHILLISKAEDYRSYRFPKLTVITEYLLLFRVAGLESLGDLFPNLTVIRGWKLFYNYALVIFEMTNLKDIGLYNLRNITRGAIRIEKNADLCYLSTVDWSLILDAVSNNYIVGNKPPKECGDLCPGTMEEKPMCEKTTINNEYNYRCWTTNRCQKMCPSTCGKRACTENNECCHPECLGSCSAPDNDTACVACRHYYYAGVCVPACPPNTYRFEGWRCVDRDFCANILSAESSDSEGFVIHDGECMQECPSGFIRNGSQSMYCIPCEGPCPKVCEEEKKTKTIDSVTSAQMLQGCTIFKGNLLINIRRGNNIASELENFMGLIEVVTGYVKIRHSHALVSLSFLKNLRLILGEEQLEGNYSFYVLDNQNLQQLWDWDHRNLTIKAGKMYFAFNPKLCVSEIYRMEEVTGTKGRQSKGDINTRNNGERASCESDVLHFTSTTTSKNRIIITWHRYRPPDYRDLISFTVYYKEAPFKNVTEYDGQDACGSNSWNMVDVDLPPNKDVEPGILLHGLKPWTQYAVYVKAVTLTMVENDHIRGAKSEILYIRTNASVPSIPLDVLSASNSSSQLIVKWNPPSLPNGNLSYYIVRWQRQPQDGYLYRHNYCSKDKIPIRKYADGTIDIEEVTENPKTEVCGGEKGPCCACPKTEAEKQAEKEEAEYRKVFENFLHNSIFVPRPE
Insulin-like growth factor 1 receptor, sequence (P08069 741-1367 limits assumed): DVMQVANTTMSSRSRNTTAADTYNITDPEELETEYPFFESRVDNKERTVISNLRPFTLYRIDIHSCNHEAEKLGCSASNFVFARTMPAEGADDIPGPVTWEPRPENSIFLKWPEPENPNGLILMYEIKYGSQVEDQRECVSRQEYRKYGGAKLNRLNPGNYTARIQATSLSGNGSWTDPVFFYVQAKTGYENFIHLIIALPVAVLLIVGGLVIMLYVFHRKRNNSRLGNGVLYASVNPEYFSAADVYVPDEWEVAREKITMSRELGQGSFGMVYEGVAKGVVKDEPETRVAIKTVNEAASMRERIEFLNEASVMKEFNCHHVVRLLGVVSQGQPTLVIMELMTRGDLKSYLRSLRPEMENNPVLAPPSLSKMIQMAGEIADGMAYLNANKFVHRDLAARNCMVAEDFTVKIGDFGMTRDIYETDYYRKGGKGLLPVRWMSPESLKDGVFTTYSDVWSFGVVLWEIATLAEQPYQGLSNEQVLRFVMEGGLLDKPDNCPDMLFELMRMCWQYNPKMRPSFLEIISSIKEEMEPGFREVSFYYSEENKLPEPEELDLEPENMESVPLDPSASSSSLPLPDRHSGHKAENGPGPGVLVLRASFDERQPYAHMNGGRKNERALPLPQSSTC

Take `COc1cc(Nc2nccc(N3CCC[C@H](C(=O)NCc4ccc([N+](=O)[O-])cc4)C3)n2)cc(OC)c1OC`: the results for the negative logarithm of the IC50 (pIC50) in experiment [1] and in experiment [2] were 5.53 and below 4.60, respectively. `Cc1ccc(CNC(=O)[C@H]2CCCN(c3ccnc(Nc4cccc(Cl)c4)n3)C2)cc1` showed a pIC50 in experiment [2] below 4.60.

Consider `Cc1ccc(CNC(=O)[C@H]2CCCN(c3ccnc(Nc4ccc5c(c4)OCCO5)n3)C2)cc1`, for which the negative logarithm of the IC50 (pIC50) in experiment [2] is below 4.60. `CNc1nccc(N2CCC[C@H](C(=O)NCc3ccc(C)cc3)C2)n1`: the pIC50 in experiment [1] and in experiment [2] was below 4.60 each time. Compound `COc1cc(Nc2nccc(N3CCC[C@H](C(=O)NCc4ccc(-c5ccccc5)cc4)C3)n2)cc(OC)c1OC` showed a pIC50 in experiment [2] below 4.60.

Compound `CCc1ccc(Nc2nccc(N3CCC[C@H](C(=O)NCc4ccc(C)cc4)C3)n2)cc1` showed a negative logarithm of the IC50 (pIC50) in experiment [2] below 4.60. In the case of `COc1cc(Nc2nccc(N3CCC[C@H](C(=O)NCCc4ccccc4)C3)n2)cc(OC)c1OC`, the negative-log IC50 (pIC50) in experiment [2] was below 4.60. As for `Cc1ccc(CNC(=O)[C@H]2CCCN(c3ccnc(Nc4ccccc4)n3)C2)cc1`, the pIC50 in experiment [2] was below 4.60. In the case of `CCc1cccc(Nc2nccc(N3CCC[C@H](C(=O)NCc4ccc(C)cc4)C3)n2)c1`, the negative logarithm of the IC50 (pIC50) in experiment [2] is below 4.60. In experiment [2], `COc1ccc(Nc2nccc(N3CCC[C@H](C(=O)NCc4ccc(C)cc4)C3)n2)cc1OC` had a negative-log IC50 (pIC50) below 4.60. Regarding `COc1cc(Nc2nccc(N3CCC[C@H](C(=O)NCc4cccc(N5CCOCC5)c4)C3)n2)cc(OC)c1OC`, the pIC50 is 7.55 in experiment [3] and 7.51 in experiment [1].

`Cc1ccc(CNC(=O)[C@H]2CCCN(c3ccnc(Nc4ccc(Cl)cc4)n3)C2)cc1`: the pIC50 was 5.20 in experiment [1] and below 4.60 in experiment [2]. In experiment [2], `COC(=O)c1ccc(CNC(=O)[C@H]2CCCN(c3ccnc(Nc4cc(OC)c(OC)c(OC)c4)n3)C2)cc1` gave a pIC50 below 4.60.

In the case of `COc1cc(Nc2nccc(N3CCC[C@H](C(=O)NCCCc4ccccc4)C3)n2)cc(OC)c1OC`, the pIC50 in experiment [1] is 5.17. Take `COc1cc(Nc2nccc(N3CCC[C@H](C(=O)NCc4ccc(C)cc4)C3)n2)cc(OC)c1OC`: the negative logarithm of the IC50 (pIC50) in experiment [2] is 5.34.

`COc1ccc(Nc2nccc(N3CCC[C@H](C(=O)NCc4ccc(C)cc4)C3)n2)cc1` showed a pIC50 in experiment [2] below 4.60. In turn, `COc1cc(Nc2nccc(N3CCC[C@@H](C(=O)NCc4ccc(C)cc4)C3)n2)cc(OC)c1OC` gave a pIC50 in experiment [2] below 4.60. Turning to `Cc1ccc(CNC(=O)[C@H]2CCCN(c3ccnc(NCc4ccccc4)n3)C2)cc1`, the pIC50 in experiment [1] and in experiment [2] was below 4.60 throughout.

The pIC50 is the negative decadic logarithm of the IC50, by convention in mol/L.
